According to US8314150B2, “Kinase protein binding inhibitors” (priority 2008, dated 2012):

Tests used:
FAK = biological target: T1, FAK (Homo sapiens, UniProt Q05397); experiment: In vitro kinase assay with purified recombinant FAK; format: biochemical; conditions: doses 1-100 μM tested
T1 construct: made in house; host or cells: Baculovirus system
Experimental: (§1) Cell Viability Assay—The Cells were treated with peptides for 24 hours at different peptide concentrations. The 3-(4,5-dimethylthiazol-2-yl)-5-(3-carboxymethoxyphenyl)-2-(4-sulfophenyl)-2H-tetrazolium compound from Promega Viability kit (Madison, Ill.) was added, and the cells were incubated at 37° C. for 1-2 hours. The optical density on 96-plate was analyzed with a microplate reader at 490 nm to determine cell viability. In addition, cells were stained with trypan blue after 24 hours of treatment with Y15 and the percent of cells that stained positive were determined with a hemacytometer. […] Then 2% SDS was added to the dried plated and OD at 590 nm was measured for detecting cell adhesion. […] Protein concentrations were determined using a Bio-Rad Kit. The boiled samples were loaded on Ready SDS-10% PAGE gels (Bio Rad, Inc) and used for Western blot analysis with the protein-specific antibody. […] Detachment Assay—Cells were plated with and without inhibitors for 24 hours, and detached and attached cells were counted in a hemocytometer. We calculated the percent of detachment by dividing the number of detached cells by the total number of cells. The percent of detached cells was calculated in three independent experiments. […] For each experiment 300 cells per treatment were counted. […]

[1] = Tolerability in nude mice in tumor growth inhibition experiments; format: in vivo
Experimental: as §1

pancreatic tumor cells = experiment: Cell adhesion assay on collagen-coated plates, pancreatic tumor cells; format: cell-based, human
Experimental: as §1

[2] = tested on: BT474 breast cancer cells; experiment: BT474 subcutaneous tumor growth in nude mice; format: in vivo
Experimental: Cell Viability Assay—The Cells were treated with peptides for 24 hours at different peptide concentrations. The 3-(4,5-dimethylthiazol-2-yl)-5-(3-carboxymethoxyphenyl)-2-(4-sulfophenyl)-2H-tetrazolium compound from Promega Viability kit (Madison, Ill.) was added, and the cells were incubated at 37° C. for 1-2 hours. The optical density on 96-plate was analyzed with a microplate reader at 490 nm to determine cell viability. In addition, cells were stained with trypan blue after 24 hours of treatment with Y15 and the percent of cells that stained positive were determined with a hemacytometer. Cell adhesion assay—The poly-L-Lysine or Collagen (5 μg/ml) coated 96-well plates were blocked with the blocking buffer (medium with 0.5% BSA) for 1 hour at 37 C. The cells were pre-treated with drugs for 3 hours and plated for adhesion at 4×10^5 cells. Cells were incubated at 37 C for 1 hour, fixed in 3.7% formaldehyde, washed in 0.1% BSA in PBS and stained with crystal violet (5 mg/ml in 2% ethanol) for 10 minutes. Then 2% SDS was added to the dried plated and OD at 590 nm was measured for detecting cell adhesion. […] Protein concentrations were determined using a Bio-Rad Kit. The boiled samples were loaded on Ready SDS-10% PAGE gels (Bio Rad, Inc) and used for Western blot analysis with the protein-specific antibody. […] Detachment Assay—Cells were plated with and without inhibitors for 24 hours, and detached and attached cells were counted in a hemocytometer. We calculated the percent of detachment by dividing the number of detached cells by the total number of cells. The percent of detached cells was calculated in three independent experiments. […] The percent of apoptotic cells was calculated as a ratio of apoptotic detached cells divided by the total number of cells in three independent experiments in several fields with the fluorescent microscope. For each experiment 300 cells per treatment were counted. In vitro Kinase Assay—10 μCi of [γ-^32P]-ATP in a kinase buffer (20 mM HEPES, pH 7.4, 5 mM MgCl2, 5 mM MnCl2, 0.1 mM Na3VO4 with 0.1 μg of purified FAK protein were incubated in a kinase buffer with 10 μCi of [γ-^32P]-ATP. The kinase reaction was performed for 5 minutes at room temperature and stopped by addition of 2× Laemmli buffer. Proteins were separated on a Ready SDS-10% PAGE gel, and the phosphorylated enolase was visualized by autoradiography. KinaseProfiler screening—Kinase specificity screening was performed with KinaseProfiler™ Service (Millipore) available on http://www.millipore.com/drugdiscovery/dd3/KinaseProfiler. […]

T1 sequence (Q05397 whole entry): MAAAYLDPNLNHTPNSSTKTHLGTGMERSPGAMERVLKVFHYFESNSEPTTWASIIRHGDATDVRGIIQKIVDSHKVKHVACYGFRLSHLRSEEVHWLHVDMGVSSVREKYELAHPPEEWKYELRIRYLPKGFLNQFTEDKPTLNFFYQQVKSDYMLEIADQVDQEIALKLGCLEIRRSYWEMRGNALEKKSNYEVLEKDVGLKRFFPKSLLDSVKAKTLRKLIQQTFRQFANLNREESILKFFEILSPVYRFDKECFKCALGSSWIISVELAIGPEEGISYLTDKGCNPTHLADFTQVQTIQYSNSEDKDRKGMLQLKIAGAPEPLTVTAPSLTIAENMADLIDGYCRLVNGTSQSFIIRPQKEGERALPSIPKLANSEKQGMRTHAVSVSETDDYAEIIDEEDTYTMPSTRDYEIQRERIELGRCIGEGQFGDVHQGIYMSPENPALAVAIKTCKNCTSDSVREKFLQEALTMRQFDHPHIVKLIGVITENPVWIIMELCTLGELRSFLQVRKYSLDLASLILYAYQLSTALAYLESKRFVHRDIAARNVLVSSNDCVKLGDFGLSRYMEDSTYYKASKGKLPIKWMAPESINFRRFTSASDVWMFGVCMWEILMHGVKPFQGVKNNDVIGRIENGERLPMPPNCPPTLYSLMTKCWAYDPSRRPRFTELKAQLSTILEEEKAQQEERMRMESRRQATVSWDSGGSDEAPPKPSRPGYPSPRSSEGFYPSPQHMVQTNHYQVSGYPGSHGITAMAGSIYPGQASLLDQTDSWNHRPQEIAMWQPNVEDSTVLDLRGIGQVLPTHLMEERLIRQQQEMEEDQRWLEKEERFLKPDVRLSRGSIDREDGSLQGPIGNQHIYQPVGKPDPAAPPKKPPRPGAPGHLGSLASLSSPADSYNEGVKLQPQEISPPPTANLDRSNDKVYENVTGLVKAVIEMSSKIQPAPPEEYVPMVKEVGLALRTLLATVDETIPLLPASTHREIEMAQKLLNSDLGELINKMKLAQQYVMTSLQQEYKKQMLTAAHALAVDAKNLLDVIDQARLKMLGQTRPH

In the case of `Cl.Cl.Cl.Cl.Nc1cc(N)c(N)cc1N` [Y15, 1,2,4,5-benzenetetraamine tetrahydrochloride], the “dose from which FAK autophosphorylation activity was directly blocked” value (FAK) is reported as 1, the optimal non-toxic dose ([1]; IP, nude mice) is reported as 30 mg/kg and the “animal weight loss or death” value ([1]; intraperitoneal 30 mg/kg, 5 days/week, 36 days) is reported as “No animal weight loss or death was observed”. For the same molecule, the cell adhesion (pancreatic tumor cells; 50 μM) was “decreased adhesion in a similar fashion to 50 μM of TAE226”, the “dose from which cell adhesion was significantly decreased” value (pancreatic tumor cells; collagen-coated plates) was 10 µM and the tumor growth ([2]; 30 mg/kg IP, 5 days/week) was “significantly blocked tumor growth”. For the same molecule, the “inhibition of tumor growth” value ([2]; 30 mg/kg, alone) was greater than 74%, the tumor volume ([2]; 30 mg/kg, day 23, vs untreated) was “significantly less than in untreated samples” and the tumor weight ([2]; 30 mg/kg, day 23, vs untreated mice) was “significantly reduced tumor weight”.
